From patent US4942170A, “2-(substituted methylidene)-N-[3-[piperidin-1-yl]propyl]hydrazine carboximidamides useful as antiparasitics” (The Rockefeller University, priority 1988, dated 1990) come the findings set out here.

Where a name gives a salt, the structure may show the parent alone. Read-outs that look alike come from different tables or passages of the source.

Assay [1] concerns Trypanosoma cruzi Strain Y trypomastigotes. Kind of assay: Trypanocidal assay: trypomastigotes pre-incubated with test compound, then added to HSVSM cell culture. The assay is classed as cell-based. The settings on record: for percent of cells infected relative to untreated control at 0.5 µM / percent of cells infected relative to untreated control at 1 µM / percent of cells infected relative to untreated control at 5 µM / percent of cells infected relative to untreated control at 10 µM: Trypanosoma cruzi, read-out: percentage of cells infected by pre-treated trypomastigotes relative to untreated controls. How it is done:
(§1) Human saphenous vein smooth muscle (HSVSM) cells are isolated from outgrowths of explants of unused portions of veins harvested for coronary artery bypass surgery as described previously by Warner et al., J. Exp. Med., 165, 1316-1331 (1987). The cells are maintained in DME medium containing 5.5 mM glucose, 25 mM HEPES and 10% FBS (Hy-Clone Laboratories,Logan, Utah). Trypanosoma cruzi Strain Y trypomastigotes are propagated as described previously by Libby et al., J. Clin. Invest., 77, 127-135 (1986), except that HSVSM cells are used in place of bovine aortic smooth muscle cells.
Test compounds are dissolved in 0.3 ml DMSO and brought to volume by dilution with serum-free DME medium. Solutions are sterilized by filtration through 0.22 μm filter units. Trypomastigotes (10^7 ml^-1) are harvested and washed twice in serum-free DME medium. Parasites are added to solutions of the test compounds to a final concentration of 10^6 ml^-1 and incubated for 3 hours at 37° C. in a 5% CO2 atmosphere. After incubation with the test compound, 0.1 ml of the parasite suspension (10^5 organisms) is diluted with 0.4 ml cell culture medium and added to a culture of HSVSM cells. After 16 hours, the HSVSM cells are washed to remove non-internalized trypomastigotes and resupplied with fresh culture medium. Infections are followed for 4-7 days by light microscopy.
Trypomastigotes were pre-incubated with a test compound or a prior art compound as described above. Results are expressed as the percentage of cells infected by pre-treated trypomastigotes relative to untreated controls.

Assay [2] has as its target trypanothione reductase from C. fasciculata (Crithidia fasciculata, UniProt P39040). Briefly: Enzymatic reduction of compounds as substrates of trypanothione reductase (NADPH oxidation, cytochrome C coupled assay). The assay is classed as biochemical. The settings on record: aerobic. How it is done:
FIG. 2 is a graph of the results of the enzymatic reduction of compounds C, D and E of the present invention and comparative prior art compounds as a function of substrate concentration. Relative rates were measured under aerobic conditions by coupling superoxide production to cytochrome C reduction as described.
Trypanothione disulfide reductase activity is assayed spectrophotometrically by monitoring substrate-dependent oxidation of NADPH at 340 nm. Alternatively, enzyme activity is monitored by coupling radical formation to cytochrome C reduction and measuring absorbance changes (ε550 =21 mM^-1). Absorbance changes are monitored on a spectrophotometer with a thermostated cuvette chamber. Enzyme concentration is measured spectrophotometrically using the extinction coefficient (ε464 =11.3 mM^-1, Shames et al., Biochemistry, 25, 3519-3526 (1986). Kinetic runs are carried out at 27° C. in 0.1M 4-(2-hydroxyethyl)1-piperazineethane sulfonic acid (HEPES) buffer, pH 7.8, containing 0.1 mM EDTA and 0.25 mM NADPH. Anaerobic measurements are performed in rubber stoppered cuvettes that have been flushed repeatedly with helium. All buffers and solutions used in the assays are treated in this manner. Additions to the cuvette are made with a microsyringe piercing the septum. […]

The test system of the next assay is trypomastigotes. Briefly: Ongoing infection model in human smooth muscle cells infected with trypomastigotes. The settings on record: compound incubated 16 hours, counted 5 days after initial infection, untreated 1.85 × 10^7. Format: cell-based, Trypanosoma cruzi. On the procedure:
as §1
The effects of the compounds of the present invention have also been tested in an ongoing infection model. […] The cells are then incubated for 48 hours after which time the test compounds are added to the cultures and incubated for 16 hours. After 16 hours, the treated culture media is replaced with drug-free fresh media and cell culture is continued for a further 24 hours. Levels of parasitemia in the treated and untreated cultures are then examined.
*Number of trypomastigotes/ml counted swimming above the HSVM cell
monolayer 5 days after initial infection.

For a further assay, the target named is trypanothione reductase (Crithidia fasciculata, UniProt P39040). Briefly: Incubation of trypanothione reductase with compound under aerobic and anaerobic conditions, dialysis, then T(S)2 reductase assay. Format: biochemical, C. fasciculata. The settings on record: 0.277778 h, pH 7.8, read-out: loss of T(S)2 reductase activity relative to the aerobic control. How it is done:
Trypanothione disulfide reductase activity is assayed spectrophotometrically by monitoring substrate-dependent oxidation of NADPH at 340 nm. Alternatively, enzyme activity is monitored by coupling radical formation to cytochrome C reduction and measuring absorbance changes (ε550 =21 mM^-1). Absorbance changes are monitored on a spectrophotometer with a thermostated cuvette chamber. Enzyme concentration is measured spectrophotometrically using the extinction coefficient (ε464 =11.3 mM^-1, Shames et al., Biochemistry, 25, 3519-3526 (1986). Kinetic runs are carried out at 27° C. in 0.1M 4-(2-hydroxyethyl)1-piperazineethane sulfonic acid (HEPES) buffer, pH 7.8, containing 0.1 mM EDTA and 0.25 mM NADPH. Anaerobic measurements are performed in rubber stoppered cuvettes that have been flushed repeatedly with helium. All buffers and solutions used in the assays are treated in this manner. Additions to the cuvette are made with a microsyringe piercing the septum.
Assays are carried out in 0.1M HEPES, pH 7.8, containing 1 mM EDTA, 0.15 mM […], 500 pmoles/ml trypanothione reductase and 10 μM nitrofuran VIII. Reactions are started by addition of enzyme (80 μl to a 2 ml assay). Sequential spectra (200-800 nm) are collected at 20 sec intervals using a UV/Vis spectrophotometer. At the end of the experiment, the assay mixtures are dialyzed and trypanothione reductase is assayed using 250 μM T(S)2. […]

[3] abbreviates: 0.5 μM, 3 hours pre-incubation at 37° C., HSVSM cells.
The mark [4] stands for this setting: 1 μM, 3 hours pre-incubation at 37° C., HSVSM cells.
The mark [5] stands for this setting: 5 μM, 3 hours pre-incubation at 37° C., HSVSM cells.
Setting [6] is: 10 μM, 3 hours pre-incubation at 37° C., HSVSM cells.

trypanothione reductase from C. fasciculata, sequence (P39040 whole entry): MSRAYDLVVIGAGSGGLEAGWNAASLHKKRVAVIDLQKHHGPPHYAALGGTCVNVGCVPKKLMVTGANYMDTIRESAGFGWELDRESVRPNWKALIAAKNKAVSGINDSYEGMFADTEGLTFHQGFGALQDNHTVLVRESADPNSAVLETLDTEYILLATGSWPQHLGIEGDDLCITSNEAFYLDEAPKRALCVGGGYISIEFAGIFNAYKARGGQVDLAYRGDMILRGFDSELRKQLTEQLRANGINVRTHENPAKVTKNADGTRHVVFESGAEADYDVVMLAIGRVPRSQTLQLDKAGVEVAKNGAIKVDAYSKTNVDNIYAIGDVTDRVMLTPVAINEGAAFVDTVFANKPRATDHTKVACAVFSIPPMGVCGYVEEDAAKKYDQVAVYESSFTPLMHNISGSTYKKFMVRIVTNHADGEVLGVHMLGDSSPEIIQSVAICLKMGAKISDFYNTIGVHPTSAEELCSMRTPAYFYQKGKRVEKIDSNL
trypanothione reductase, sequence (P39040 whole entry): as above

With `N=C(N)NN=Cc1ccc([N+](=O)[O-])o1` [Guanofuracin, reference compound], in assay [1] (3 h), the percent of cells infected relative to untreated control at 0.5 µM came out at 100%, the percent of cells infected relative to untreated control at 1 µM is 45%, the percent of cells infected relative to untreated control at 5 µM is 0% and the percent of cells infected relative to untreated control at 10 µM was found to be 0%.

Consider `NC(=O)N/N=C/c1ccc([N+](=O)[O-])o1` [nitrofurazone], for which the “trypanothione reductase-catalyzed reduction monitored by NADPH oxidation” value in assay [2] was “could be detected”.

As for `CC1CS(=O)(=O)CCN1/N=C/c1ccc([N+](=O)[O-])o1` (stereo not drawn) [Nifurtimox, reference compound], in assay [1] (3 h), the percent of cells infected relative to untreated control at 0.5 µM was 100%, the percent of cells infected relative to untreated control at 1 µM worked out at 100%, the percent of cells infected relative to untreated control at 5 µM stood at 10% and the percent of cells infected relative to untreated control at 10 µM was 4%. In assay [2], the “trypanothione reductase-catalyzed reduction monitored by NADPH oxidation” value is recorded as “could be detected”.

Turning to `CC(CCC1=C(C)C(=O)c2ccccc2C1=O)=NNC(=N)N` [Compound B, hydrochloride], the percent of cells infected relative to untreated control at 0.5 µM in assay [1] (setting [3]) stood at 100%. In addition, in assay [1] (setting [4]), the percent of cells infected relative to untreated control at 1 µM amounted to 100%. Also, in assay [1] (setting [5]), the percent of cells infected relative to untreated control at 5 µM came out at 21%. For the same molecule, the percent of cells infected relative to untreated control at 10 µM in assay [1] (setting [6]) was determined as 8%.

As to “2-(5-Nitro-2-furanylmethylidene)-N-[3-(4-methylpiperidin-1-yl)propyl]hydrazinecarboximidamide trihydrobromide [Compound D]”, the “percentage of cells infected by pre-treated trypomastigotes relative to untreated controls” value in assay [1] (setting [3]) worked out at 64%; in assay [1] (setting [4]), 35%; in assay [1] (setting [5]), 0%; in assay [1] (setting [6]), 0%. Further, the “Trypomastigotes/ml counted swimming above the HSVM cell monolayer” value is on record as 1.80 × 10^7 Trypomastigotes/ml with trypomastigotes (1 μM) and < 2.00 × 10^4 Trypomastigotes/ml in the assay with trypomastigotes (10 μM).

In the case of `N=C(NCCCN1CCN(CCCNC(=N)NN=Cc2ccc([N+](=O)[O-])o2)CC1)NN=Cc1ccc([N+](=O)[O-])o1` [Compound E, 2,2'-Bis(5-nitro-2-furanylmethylidene)-N,N'-[1,4-piperazinediylbis(3,1-propanediyl)]-bishydrazinecarboximidamide tetrahydrobromide], in assay [1] (3 h), the percent of cells infected relative to untreated control at 0.5 µM came to 100%, the percent of cells infected relative to untreated control at 1 µM worked out at 0%, the percent of cells infected relative to untreated control at 5 µM is 0% and the percent of cells infected relative to untreated control at 10 µM was found to be 0%. In addition, the “Trypomastigotes/ml counted swimming above the HSVM cell monolayer” value in the assay with trypomastigotes (1 μM) was 1.85 × 10^7 Trypomastigotes/ml. Further, the “Trypomastigotes/ml counted swimming above the HSVM cell monolayer” value in the assay with trypomastigotes (10 μM) is 2.85 × 10^7 Trypomastigotes/ml. On trypanothione reductase, the inhibition at 10 µM came to 93%.

Turning to `CC(CCC1=C(CCC(C)=NNC(=N)N)C(=O)c2ccccc2C1=O)=NNC(=N)N.Cl.Cl` [Compound A, 2,3-Bis(3-(2-amidinohydrazono)butyl)-1,4-naphthoquinone dihydrochloride], the percent of cells infected relative to untreated control at 0.5 µM in assay [1] (setting [3]) was 14%. The percent of cells infected relative to untreated control at 1 µM in assay [1] (setting [4]) came to 0%. Besides, in assay [1] (setting [5]), the percent of cells infected relative to untreated control at 5 µM came to 0%. Further, the percent of cells infected relative to untreated control at 10 µM in assay [1] (setting [6]) is 0%. Besides, the “Trypomastigotes/ml counted swimming above the HSVM cell monolayer” value in the assay with trypomastigotes (1 μM) was 4.10 × 10^7 Trypomastigotes/ml; with trypomastigotes (10 μM), 1.35 × 10^7 Trypomastigotes/ml.
